For this assay, the target named is recombinant human ACC2 (Homo sapiens (Human), UniProt O00763). Briefly: Measurement of inhibitory activity on human ACC2 (MALDI-TOF MS, acetyl CoA to malonyl CoA conversion). Conditions: Tables 155-159. The format is biochemical. An outline of the steps:
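His-tagged human ACC2 (residues 27–2458) from baculovirus-infected Sf-9 cells was preincubated 1 h in pH 7.4 HEPES-KOH buffer with MgCl2, 6-10 mM potassium citrate, glutathione and BSA. Substrate solution held 1 mM ATP, 0.8 mM acetyl CoA and 25-50 mM bicarbonate. After 1–3 h at room temperature, malonyl CoA/(malonyl+acetyl CoA) was read by negative-mode MALDI-TOF MS; citrate, bicarbonate and time varied by enzyme lot.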
Sequence of recombinant human ACC2 (O00763 27-2458): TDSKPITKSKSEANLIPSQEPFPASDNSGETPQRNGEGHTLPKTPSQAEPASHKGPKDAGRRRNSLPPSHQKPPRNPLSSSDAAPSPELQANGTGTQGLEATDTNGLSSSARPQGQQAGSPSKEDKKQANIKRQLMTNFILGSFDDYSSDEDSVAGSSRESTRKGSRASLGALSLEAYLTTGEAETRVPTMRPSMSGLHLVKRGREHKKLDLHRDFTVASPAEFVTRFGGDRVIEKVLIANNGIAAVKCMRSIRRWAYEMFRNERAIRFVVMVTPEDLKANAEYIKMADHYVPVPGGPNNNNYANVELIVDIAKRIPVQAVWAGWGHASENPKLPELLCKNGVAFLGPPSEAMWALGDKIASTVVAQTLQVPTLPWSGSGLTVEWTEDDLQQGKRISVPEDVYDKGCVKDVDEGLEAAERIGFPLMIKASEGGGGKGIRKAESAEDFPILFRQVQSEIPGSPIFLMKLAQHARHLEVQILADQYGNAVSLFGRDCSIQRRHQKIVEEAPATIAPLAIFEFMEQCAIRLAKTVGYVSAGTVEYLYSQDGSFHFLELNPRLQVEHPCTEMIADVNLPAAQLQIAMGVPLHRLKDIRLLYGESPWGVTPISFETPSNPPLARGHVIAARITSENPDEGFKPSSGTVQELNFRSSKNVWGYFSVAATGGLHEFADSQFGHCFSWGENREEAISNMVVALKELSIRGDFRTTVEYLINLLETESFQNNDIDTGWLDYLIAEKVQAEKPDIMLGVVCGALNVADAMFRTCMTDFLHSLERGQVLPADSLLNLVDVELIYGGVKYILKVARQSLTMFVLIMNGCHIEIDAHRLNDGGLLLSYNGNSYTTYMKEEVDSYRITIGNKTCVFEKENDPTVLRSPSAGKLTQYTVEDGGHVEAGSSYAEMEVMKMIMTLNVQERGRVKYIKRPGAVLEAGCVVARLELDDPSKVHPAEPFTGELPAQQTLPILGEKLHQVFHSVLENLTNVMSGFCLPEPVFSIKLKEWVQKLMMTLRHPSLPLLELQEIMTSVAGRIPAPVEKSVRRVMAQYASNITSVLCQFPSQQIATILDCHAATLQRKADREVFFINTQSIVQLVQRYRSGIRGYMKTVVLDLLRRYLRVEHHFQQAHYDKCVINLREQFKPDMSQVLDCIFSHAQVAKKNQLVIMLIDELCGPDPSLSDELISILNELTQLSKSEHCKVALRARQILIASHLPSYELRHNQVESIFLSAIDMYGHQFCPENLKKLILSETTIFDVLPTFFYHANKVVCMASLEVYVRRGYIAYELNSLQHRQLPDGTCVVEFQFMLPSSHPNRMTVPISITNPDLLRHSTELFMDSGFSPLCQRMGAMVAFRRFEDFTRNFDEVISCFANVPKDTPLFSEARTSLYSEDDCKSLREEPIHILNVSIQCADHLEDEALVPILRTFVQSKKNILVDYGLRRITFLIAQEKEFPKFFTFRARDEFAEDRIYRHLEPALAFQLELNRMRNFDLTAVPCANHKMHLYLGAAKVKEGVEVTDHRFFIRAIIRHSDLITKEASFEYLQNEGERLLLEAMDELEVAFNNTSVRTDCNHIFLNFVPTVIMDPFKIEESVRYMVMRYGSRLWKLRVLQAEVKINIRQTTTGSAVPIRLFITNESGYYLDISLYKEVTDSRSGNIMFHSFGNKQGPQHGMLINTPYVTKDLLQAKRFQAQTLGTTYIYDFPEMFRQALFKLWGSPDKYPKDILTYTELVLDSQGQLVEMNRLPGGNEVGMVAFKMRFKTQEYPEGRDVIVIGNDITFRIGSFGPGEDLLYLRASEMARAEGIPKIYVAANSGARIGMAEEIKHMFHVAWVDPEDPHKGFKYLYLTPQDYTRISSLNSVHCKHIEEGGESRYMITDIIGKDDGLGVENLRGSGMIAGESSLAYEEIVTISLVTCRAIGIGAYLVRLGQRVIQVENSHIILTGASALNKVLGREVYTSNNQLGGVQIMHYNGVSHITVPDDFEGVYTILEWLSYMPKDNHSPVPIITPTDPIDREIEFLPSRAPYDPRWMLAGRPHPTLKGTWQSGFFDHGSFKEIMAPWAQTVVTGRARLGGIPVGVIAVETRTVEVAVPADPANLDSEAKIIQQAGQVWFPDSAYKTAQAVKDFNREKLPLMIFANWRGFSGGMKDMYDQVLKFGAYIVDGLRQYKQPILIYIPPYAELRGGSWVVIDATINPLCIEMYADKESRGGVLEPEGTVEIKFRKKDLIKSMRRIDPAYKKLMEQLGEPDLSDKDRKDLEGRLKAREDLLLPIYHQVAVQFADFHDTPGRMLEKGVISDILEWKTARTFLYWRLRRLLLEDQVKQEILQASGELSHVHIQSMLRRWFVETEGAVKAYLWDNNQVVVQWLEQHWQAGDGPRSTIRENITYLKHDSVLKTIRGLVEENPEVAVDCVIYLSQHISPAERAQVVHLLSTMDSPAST
In general, IC50 refers to the concentration at which inhibition is half-maximal. Consider `CC(=O)N[C@@H](C)CO[C@H]1CC[C@H](Oc2nc3ccc(OCC4CC4)cc3s2)CC1` [Compound I-550], for which the IC50 was found to be 21 nM.

For the compound `CC(=O)N[C@@H](C)CO[C@H]1CC[C@H](Oc2nc3cnc(OCC(F)F)cc3s2)CC1` [Compound I-551], the IC50 turned out to be 15 nM.

With `CC(=O)N[C@@H](C)CO[C@H]1CC[C@H](Oc2nc3cnc(OCC(F)F)c(F)c3s2)CC1` [Compound I-552], the IC50 worked out at 13 nM.

`CC(=O)N[C@@H](C)CO[C@H]1CC[C@H](Oc2nc3ccc(OCC(F)F)nc3s2)CC1` [Compound I-553]: the IC50 was 196 nM.

Regarding `CC(=O)N[C@@H](C)CO[C@H]1CC[C@H](Oc2ncc3cc(OCC(F)F)ccc3n2)CC1` [Compound I-554], the IC50 came out at 620 nM.

As for `CC(=O)N[C@@H](C)CO[C@H]1CC[C@H](Oc2ncc3c(Cl)c(OCC4CC4)ccc3n2)CC1` [Compound I-555], the IC50 turned out to be 34 nM.

As for `CC(=O)N[C@@H](C)CO[C@H]1CC[C@H](Oc2nc3ccc(Br)cc3n2C)CC1` [Compound I-556], the IC50 amounted to 105 nM.

Take `CC(=O)N[C@@H](C)CO[C@H]1CC[C@H](Oc2nc3cc(Br)ccc3n2C)CC1` [Compound I-557]: the IC50 is 216 nM.

Turning to `CC(=O)N[C@@H](C)CO[C@H]1CC[C@H](Oc2nc3ccc(OCc4ccccc4)cc3n2C)CC1` [Compound I-558], the IC50 stood at 43 nM.

On to `CCOc1ccc2nc(O[C@H]3CC[C@H](OC[C@H](C)NC(C)=O)CC3)n(C)c2c1` [Compound I-559], for which the IC50 worked out at 43 nM.

Take `CC(=O)N[C@@H](C)CO[C@H]1CC[C@H](Oc2nc3ccc(OC(C)C)cc3n2C)CC1` [Compound I-560]: the IC50 worked out at 101 nM.

For the compound `CC(=O)N[C@@H](C)CO[C@H]1CC[C@H](Oc2nc3ccc(OCC4CC4)cc3n2C)CC1` [Compound I-561], the IC50 is 104 nM.

On to `CCOc1ccc2nc(O[C@H]3CC[C@H](OC[C@H](C)NC(C)=O)CC3)n(C(C)C)c2c1` [Compound I-562], for which the 50% inhibitory concentration (IC50) came out at 350 nM.

As for `CCOc1cc2c(cn1)nc(O[C@H]1CC[C@H](OC[C@H](C)NC(C)=O)CC1)n2C` [Compound I-563], the IC50 was 101 nM.

As for `CCOc1ccc2c(c1)nc(O[C@H]1CC[C@H](OC[C@H](C)NC(C)=O)CC1)n2C` [Compound I-564], the IC50 came out at 385 nM.

Take `CC(=O)N[C@@H](C)CO[C@H]1CC[C@H](Oc2nc3cc(OC(C)C)ccc3n2C)CC1` [Compound I-566]: the IC50 was determined as 304 nM.

With `CC(=O)N[C@@H](C)CO[C@H]1CC[C@H](Oc2nc3cc(OCC4CC4)ccc3n2C)CC1` [Compound I-567], the IC50 was determined as 167 nM.

As to `CCOc1ccc2nc(O[C@H]3CC[C@H](OC[C@H](C)NC(C)=O)CC3)n(C3CC3)c2c1` [Compound I-568], the IC50 was 225 nM.

For the compound `CC(=O)N[C@@H](C)CO[C@H]1CC[C@H](Oc2nc3ccc(OCC(F)F)cc3n2C)CC1` [Compound I-569], the concentration for half-maximal inhibition (IC50) came out at 86 nM.

For the compound `COc1ccc2c(c1)nc(O[C@H]1CC[C@H](OC[C@H](C)NC(C)=O)CC1)n2C` [Compound I-570], the IC50 turned out to be 935 nM.

As to `CC(=O)N[C@@H](C)CO[C@H]1CC[C@H](Oc2nc3ccc(OCC(F)(F)F)cc3n2C)CC1` [Compound I-571], the IC50 worked out at 166 nM.

Turning to `CC(=O)N[C@@H](C)CO[C@H]1CC[C@H](Oc2nc3ccc(OC(F)(F)F)cc3n2C)CC1` [Compound I-572], the IC50 was 227 nM.

For the compound `CCCc1ccc2nc(O[C@H]3CC[C@H](OC[C@H](C)NC(C)=O)CC3)n(C)c2c1` [Compound I-573], the IC50 amounted to 68 nM.

For the compound `CC(=O)N[C@@H](C)CO[C@H]1CC[C@H](Oc2nc3ccc(C4CC4)cc3n2C)CC1` [Compound I-574], the IC50 was 129 nM.

In the case of `CCSc1ccc2nc(O[C@H]3CC[C@H](OC[C@H](C)NC(C)=O)CC3)n(C)c2c1` [Compound I-577], the IC50 was determined as 62 nM.

On to `CC(=O)N[C@@H](C)CO[C@H]1CC[C@H](Oc2nc3ccc(SCC(C)C)cc3n2C)CC1` [Compound I-578], for which the IC50 was determined as 110 nM.

With `CCOc1ccc2nc(O[C@H]3CC[C@H](OC[C@H](C)NC(C)=O)CC3)n(CC)c2c1` [Compound I-579], the IC50 worked out at 334 nM.

Take `CC(=O)N[C@@H](C)CO[C@H]1CC[C@H](Oc2nc3ccc(-c4ccccc4)cc3n2C)CC1` [Compound I-582]: the IC50 was found to be 168 nM.

For `CCc1ccc2nc(O[C@H]3CC[C@H](OC[C@H](C)NC(C)=O)CC3)n(C)c2c1` [Compound I-583], the half-maximal inhibitory concentration (IC50) is 71 nM.

Turning to `CC(=O)N[C@@H](C)CO[C@H]1CC[C@H](Oc2nc3ccc(C(C)C)cc3n2C)CC1` [Compound I-585], the IC50 worked out at 77 nM.

As to `CC(=O)N[C@@H](C)CO[C@H]1CC[C@H](Oc2nc3ccc(Oc4ccccc4)cc3n2C)CC1` [Compound I-586], the IC50 is 9 nM.

Turning to `CC(=O)N[C@@H](C)CO[C@H]1CC[C@H](Oc2nc3cc(C(F)(F)F)ccc3n2C)CC1` [Compound I-587], the IC50 came out at 87 nM.

On to `CC(=O)N[C@@H](C)CO[C@H]1CC[C@H](Oc2nc3ccc(Oc4ccccn4)cc3n2C)CC1` [Compound I-590], for which the IC50 stood at 584 nM.

As to `CC(=O)N[C@@H](C)CO[C@H]1CC[C@H](Oc2nc3cnc(Oc4ccccc4)cc3n2C)CC1` [Compound I-592], the IC50 was 110 nM.

On to `CC(=O)N[C@@H](C)CO[C@H]1CC[C@H](Oc2nc3ccc(Oc4cccnc4)cc3n2C)CC1` [Compound I-593], for which the IC50 is 80 nM.

As to `CC(=O)N[C@@H](C)CO[C@H]1CC[C@H](Oc2nc3ccc(Oc4ccncc4)cc3n2C)CC1` [Compound I-594], the IC50 came to 383 nM.

For the compound `CC(=O)N[C@@H](C)CO[C@H]1CC[C@H](Oc2nc3ccc(Oc4ccc(F)cc4)cc3n2C)CC1` [Compound I-596], the IC50 amounted to 10 nM.

Regarding `COc1ccc2nc(O[C@H]3CC[C@H](OC[C@H](C)NC(C)=O)CC3)n(C)c2c1F` [Compound I-599], the IC50 was 23 nM.

Regarding `CC(=O)N[C@@H](C)CO[C@H]1CC[C@H](Oc2nc3ccc(OCc4ccccc4)c(F)c3n2C)CC1` [Compound I-600], the IC50 came to 13 nM.

As for `CCOc1ccc2nc(O[C@H]3CC[C@H](OC[C@H](C)NC(C)=O)CC3)n(C)c2c1F` [Compound I-601], the IC50 was 8 nM.

`CC(=O)N[C@@H](C)CO[C@H]1CC[C@H](Oc2nc3ccc(OC(C)C)c(F)c3n2C)CC1` [Compound I-602]: the IC50 is 12 nM.

Consider `CCOc1c(Cl)cc2nc(O[C@H]3CC[C@H](OC[C@H](C)NC(C)=O)CC3)n(C)c2c1Cl` [Compound I-603], for which the IC50 is 7 nM.

`CCOc1ccc2nc(O[C@H]3CC[C@H](OC[C@H](C)NC(C)=O)CC3)n(C)c2c1Cl` [Compound I-604]: the IC50 was found to be 6 nM.

With `CCOc1ccc2nc(O[C@H]3CC[C@H](OC[C@H](C)NC(C)=O)CC3)n(C)c2c1Br` [Compound I-605], the IC50 was 13 nM.

Turning to `CCOc1ccc2nc(O[C@H]3CC[C@H](OC[C@H](C)NC(C)=O)CC3)n(C)c2c1C` [Compound I-606], the IC50 was determined as 74 nM.

Consider `CC(=O)N[C@@H](C)CO[C@H]1CC[C@H](Oc2nc3cnc(OC(C)C)cc3n2C)CC1` [Compound I-607], for which the IC50 was 110 nM.

Regarding `CC(=O)N[C@@H](C)CO[C@H]1CC[C@H](Oc2nc3cnc(OC[C@H](C)F)c(Cl)c3n2C)CC1` [Compound I-608], the IC50 amounted to 11 nM.

With `CC(=O)N[C@@H](C)CO[C@H]1CC[C@H](Oc2nc3c(Cl)c(Cl)c(OCC(F)F)cc3n2C)CC1` [Compound I-609], the IC50 was 525 nM.

Consider `CCOc1cc2c(nc(O[C@H]3CC[C@H](OC[C@H](C)NC(C)=O)CC3)n2C)c(F)c1Cl` [Compound I-610], for which the IC50 worked out at 85 nM.

As to `CC(=O)N[C@@H](C)CO[C@H]1CC[C@H](Oc2nc3c(F)cc(OC4CC4)c(F)c3n2C)CC1` [Compound I-611], the IC50 amounted to 3 nM.

`C[C@@H](CO[C@H]1CC[C@H](Oc2nc3c(F)cc(OCC(F)F)c(F)c3n2C)CC1)NC(=O)C(F)F` [Compound I-614]: the IC50 came to 11 nM.

As for `CC(=O)N[C@@H](C)CC[C@H]1OC[C@H](Oc2nc3c(F)cc(OCC(F)F)c(F)c3n2C)CO1` [Compound I-615], the IC50 is 27 nM.

`CC(=O)N[C@@H](C)CO[C@H]1CC[C@H](Oc2nc3c(F)cc(OC4CN(C(C)=O)C4)c(F)c3n2C)CC1` [Compound I-616]: the IC50 was determined as 240 nM.

As for `CC(=O)N[C@@H](C)CO[C@H]1CC[C@H](Oc2nc3c(C#N)cc(OC4CC4)c(F)c3n2C)CC1` [Compound I-617], the IC50 came to 9 nM.

As for `CC(=O)N[C@@H](C)CO[C@H]1CC[C@H](Oc2nc3c(Cl)c(F)c(OCC(F)F)c(F)c3n2C)CC1` [Compound I-618], the IC50 was determined as 17 nM.

Regarding `CC(=O)N[C@@H](C)CO[C@H]1CC[C@H](Oc2nc3c(F)c(F)c(F)c(F)c3n2C)CC1` [Compound I-619], the IC50 was determined as 9 nM.

For the compound `CC(=O)N[C@@H](C)CO[C@H]1CC[C@H](Oc2nc3cnc(OCc4ccccc4)c(Cl)c3n2C)CC1` [Compound I-620], the IC50 is 28 nM.

`CC(=O)N[C@@H](C)CO[C@H]1CC[C@H](Oc2nc3ccc(C4CC4)c(F)c3n2C)CC1` [Compound I-621]: the IC50 was 8 nM.

Take `CC(=O)N[C@@H](C)CO[C@H]1CC[C@H](Oc2nc3c(F)cc(Br)cc3n2C)CC1` [Compound I-622]: the 50% inhibitory concentration (IC50) came out at 72 nM.

For `CC(=O)N[C@@H](C)CO[C@H]1CC[C@H](Oc2nc3c(Cl)cc(OCC(F)F)c(Cl)c3n2C)CC1` [Compound I-623], the IC50 came to 17 nM.

With `CC(=O)N[C@@H](C)CO[C@H]1CC[C@H](Oc2nc3cnc(OCC(F)F)c(F)c3n2C)CC1` [Compound I-624], the IC50 was 9 nM.

Consider `CC(=O)N[C@@H](C)CO[C@H]1CC[C@H](Oc2nc3cnc(OCC4CC4)c(F)c3n2C)CC1` [Compound I-625], for which the IC50 worked out at 5 nM.

With `CC(=O)N[C@@H](C)CO[C@H]1CC[C@H](Oc2nc3c(F)cc(OCC4CC4)c(F)c3n2C)CC1` [Compound I-626], the IC50 is 6 nM.

Source of the values: patent US10150728B2, “Alkylene derivatives” (Shionogi & Co., Ltd., priority 2013, dated 2018).
